{"source": "patent US20220213047A1", "about": "“CARBONIC ANHYDRASE INHIBITORS FOR TREATMENT OF NEISSERIA GONORRHOEAE INFECTION” (Purdue Research Foundation, priority 2021, published 2022)", "test_system": "intracellular N. gonorrhoeae", "assay": "Intracellular clearance of N. gonorrhoeae in infected endocervical cells (End1/E6E7)", "assay_type": "cell-based", "conditions": "5×MIC, 24 hours", "text": "Intracellular clearance of N. gonorrhoeae—N. gonorrhoeae is known to invade epithelial cells of the genital tract and cross the epithelial barrier into the subepithelial space^59. Previous studies have shown that N. gonorrhoeae can survive inside host cells and pass epithelial cell layers (a key step in causing disseminated infections)^60,61. Therefore, a drug candidate must also be able to kill intracellular N. gonorrhoeae in order to be an effective therapeutic. Also, we were concerned that CAIs have reduced activity in high-CO2 conditions and may not be suitable to treat intracellular infection. Thus, we examined CAIs ability to reduce the burden of intracellular N. gonorrhoeae present in infected endocervical cells^56.", "data": [{"compound": "CO/N=C(\\C(=O)N[C@@H]1C(=O)N2C(C(=O)O)=C(CSc3nc(=O)c(=O)[nH]n3C)CS[C@H]12)c1csc(N)n1", "note": "[ceftriaxone]", "values": [{"measurement": "reduction in N. gonorrhoeae inside infected endocervical cells", "result": 0.32, "unit": "log10"}]}]}
